Experiments:
[1] = system: hypertensive individuals who had become hypokalemic
Procedure: In an effort to determine the minimum amount of triamterene needed to reverse the hypokalemia precipitated by hydrochlorothiazide, each subject was continued on hydrochlorothiazide, 50 mg/day administered in a separate tablet, and was also given one of the following daily dosages of triamterene, administered in suspension form throughout the testing period: 0 mg, 25 mg, 50 mg, 75 mg, and 100 mg.

[2] = administration of 100 mg; differently formulated compositions; cited from earlier work

## Nc1nc(N)c2nc(-c3ccccc3)c(N)nc2n1 [triamterene, 2,4,7-triamino-6-phenylpteridine]
[1]; about 75 mg triamterene with 50 mg hydrochlorothiazide
  reversal of hydrochlorothiazide-induced hypokalemia, response: near maximal response
[1]; upper ranges of the doses tested
  effectiveness for reversing hydrochlorothiazide-induced hypokalemia: particularly large in the upper ranges of the doses tested
[2]
  limit in absorptive capacity of the gastrointestinal tract, mean: ~39%
